# Patent US12559529B2, “NPY2 receptor agonists” (Boehringer Ingelheim International GmbH, priority 2019, dated 2026)
# *1 amine or outer side, *2 acyl side, *3 side chain or, on linkers, in order; H or OH if unused. Where a SMILES comes first, the peptide text is derived from it. Side-chain parts run from the residue outwards. The star is where a group is joined. C18 diacid = O=C(O)CCCCCCCCCCCCCCCCC(=O)*; γGlu = O=C(O)[C@H](CCC(=O)[*:2])N[*:1]; Isovaleryl = CC(C)CC(=O)*; AEEA = NCCOCCOCC(=O)O
# Biological target: T1, Human Neuropeptide Y2 Receptor (Homo sapiens, UniProt P49146)
# T1 construct: purchased CHEMICON HTS066M
# T1 sequence (P49146 1-381): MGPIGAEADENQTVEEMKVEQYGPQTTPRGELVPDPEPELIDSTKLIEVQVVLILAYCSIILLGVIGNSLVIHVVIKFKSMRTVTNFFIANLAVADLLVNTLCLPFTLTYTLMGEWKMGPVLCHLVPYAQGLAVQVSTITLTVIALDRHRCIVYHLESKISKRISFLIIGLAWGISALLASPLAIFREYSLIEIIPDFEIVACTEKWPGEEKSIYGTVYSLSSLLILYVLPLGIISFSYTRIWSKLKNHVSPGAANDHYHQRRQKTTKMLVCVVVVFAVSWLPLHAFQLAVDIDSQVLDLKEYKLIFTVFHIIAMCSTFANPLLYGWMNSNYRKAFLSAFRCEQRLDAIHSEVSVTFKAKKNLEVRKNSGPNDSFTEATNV
# Assay: Radioligand binding competition assay (RLB)
# Conditions: Table 3; human 125I-PYY (1-36) 0.02 nM, Y2 receptor membranes; read-out: Ki
# How it was run: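 IC50 values come from nonlinear regression of sigmoidal dose-response curves of filter-bound radioactivity. Peptides competed with radioligand at human Y2 receptor membranes (0.5 μg protein/well) for 2 h at room temperature in pH 7.4 HEPES buffer containing Mg2+, Ca2+ and 0.2% ovalbumin.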
row,SMILES,Ki [nM]
1,"CC(C)CC(=O)N[C@@H](C)C(=O)N1CCC[C@H]1C(=O)N[C@@H](CCC(=O)O)C(=O)N[C@@H](CCCCNC(=O)COCCOCCNC(=O)COCCOCCNC(=O)CC[C@H](NC(=O)CCCCCCCCCCCCCCCCC(=O)O)C(=O)O)C(=O)N1CCC[C@H]1C(=O)N[C@@H](CCC(=O)O)C(=O)N[C@@H](CCC(=O)O)C(=O)N[C@@H](CCC(=O)O)C(=O)N[C@@H](C)C(=O)N[C@@H](CO)C(=O)N1CCC[C@H]1C(=O)N[C@@H](CCC(=O)O)C(=O)N[C@@H](CCC(=O)O)C(=O)N[C@@H](CC(C)C)C(=O)N[C@@H](CCC(N)=O)C(=O)N[C@@H](CCCNC(=N)N)C(=O)N[C@@H](Cc1ccc(O)cc1)C(=O)N[C@@H](Cc1ccc(O)cc1)C(=O)N[C@H](C(=O)N[C@@H](C)C(=O)N[C@@H](CC(C)C)C(=O)N[C@@H](CCCNC(=N)N)C(=O)N[C@@H](Cc1c[nH]cn1)C(=O)N[C@@H](Cc1ccc(O)cc1)C(=O)N[C@@H](Cc1ccc(O)cc1)C(=O)N[C@@H](CC(N)=O)C(=O)N[C@@H](Cc1c[nH]c2ccccc12)C(=O)N[C@@H](CC(C)C)C(=O)N[C@H](C(=O)N[C@@H](CCCNC(=N)N)C(=O)N[C@@H](CCC(N)=O)C(=O)N[C@@H](CCCNC(=N)N)C(=O)N[C@@H](Cc1ccc(O)cc1)C(N)=O)[C@@H](C)O)C(C)C [Compound 169, N{alpha-4}-(3-methylbutanoyl)-N{epsilon-7}-[2-(2-{2-[2-(2-{2-[(4S)-4-carboxy-4-(17-carboxyheptadecanamido)butanamido]ethoxy}ethoxy)acetamido]ethoxy}ethoxy)acetamido]-[4A,7K,9E,11E,18Q,22V,23A,28Y,30W,31L]hPYY (4-36)]",2.34
2,"CC(C)CC(=O)N[C@@H](C)C(=O)N1CCC[C@H]1C(=O)N[C@@H](CCC(=O)O)C(=O)N[C@@H](CCCCNC(=O)COCCOCCNC(=O)COCCOCCNC(=O)CC[C@H](NC(=O)CCCCCCCCCCCCCCCCC(=O)O)C(=O)O)C(=O)N1CCC[C@H]1C(=O)N[C@@H](CCC(=O)O)C(=O)N[C@@H](CCC(=O)O)C(=O)N[C@@H](CC(=O)O)C(=O)N[C@@H](C)C(=O)N[C@H](C(=O)N1CCC[C@H]1C(=O)N[C@@H](CCC(=O)O)C(=O)N[C@@H](CCC(=O)O)C(=O)N[C@H](C(=O)N[C@@H](CCC(=O)O)C(=O)N[C@@H](CCCNC(=N)N)C(=O)N[C@@H](Cc1ccc(O)cc1)C(=O)N[C@@H](Cc1ccc(O)cc1)C(=O)N[C@H](C(=O)N[C@@H](CO)C(=O)N[C@@H](CC(C)C)C(=O)N[C@@H](CCCNC(=N)N)C(=O)N[C@@H](Cc1c[nH]cn1)C(=O)N[C@@H](Cc1ccc(O)cc1)C(=O)N[C@@H](Cc1ccc(O)cc1)C(=O)N[C@@H](CC(N)=O)C(=O)N[C@@H](Cc1c[nH]c2ccccc12)C(=O)N[C@@H](CC(C)C)C(=O)N[C@H](C(=O)N[C@@H](CCCNC(=N)N)C(=O)N[C@@H](CCC(N)=O)C(=O)N[C@@H](CCCNC(=N)N)C(=O)N[C@@H](Cc1ccc(O)cc1)C(N)=O)[C@@H](C)O)C(C)C)[C@@H](C)O)[C@@H](C)O [Compound 178, N{alpha-4}-(3-methylbutanoyl)-N{epsilon-7}-[2-(2-{2-[2-(2-{2-[(4S)-4-carboxy-4-(17-carboxyheptadecanamido)butanamido]ethoxy}ethoxy)acetamido]ethoxy}ethoxy)acetamido]-[4A,7K,9E,13T,17T,18E,22V,28Y,30W,31L]hPYY (4-36)] (Isovaleryl-APEK([AEEA-AEEA-γGlu-C18 diacid])PEEDATPEETERYYVSLRHYYNWLTRQRY-NH2)",2.05
3,"CC(C)CC(=O)N[C@@H](C)C(=O)N1CCC[C@H]1C(=O)N[C@@H](C)C(=O)N[C@@H](CCCCNC(=O)COCCOCCNC(=O)COCCOCCNC(=O)CC[C@H](NC(=O)CCCCCCCCCCCCCCCCC(=O)O)C(=O)O)C(=O)N1CCC[C@H]1C(=O)N[C@@H](CCC(=O)O)C(=O)N[C@@H](CCC(=O)O)C(=O)N[C@@H](CC(=O)O)C(=O)N[C@@H](C)C(=O)N[C@@H](CO)C(=O)N1CCC[C@H]1C(=O)N[C@@H](C)C(=O)N[C@@H](CCC(=O)O)C(=O)N[C@@H](CC(C)C)C(=O)N[C@@H](CCC(N)=O)C(=O)N[C@@H](CCCNC(=N)N)C(=O)N[C@@H](Cc1ccc(O)cc1)C(=O)N[C@@H](Cc1ccc(O)cc1)C(=O)N[C@H](C(=O)N[C@@H](CO)C(=O)N[C@@H](CC(C)C)C(=O)N[C@@H](CCCNC(=N)N)C(=O)N[C@@H](Cc1c[nH]cn1)C(=O)N[C@@H](Cc1ccc(O)cc1)C(=O)N[C@@H](Cc1ccc(O)cc1)C(=O)N[C@@H](CC(N)=O)C(=O)N[C@@H](Cc1c[nH]c2ccccc12)C(=O)N[C@@H](CC(C)C)C(=O)N[C@H](C(=O)N[C@@H](CCCNC(=N)N)C(=O)N[C@@H](CCC(N)=O)C(=O)N[C@@H](CCCNC(=N)N)C(=O)N[C@@H](Cc1ccc(O)cc1)C(N)=O)[C@@H](C)O)C(C)C [Compound 179, N{alpha-4}-(3-methylbutanoyl)-N{epsilon-7}-[2-(2-{2-[2-(2-{2-[(4S)-4-carboxy-4-(17-carboxyheptadecanamido)butanamido]ethoxy}ethoxy)acetamido]ethoxy}ethoxy)acetamido]-[4A,6A,7K,9E,15A,18Q,22V,28Y,30W,31L]hPYY (4-36)]",1

# Other lines, results leading:
row,Ki [nM],SMILES
1,12.3,"CC(C)CC(=O)N[C@@H](C)C(=O)N1CCC[C@H]1C(=O)N[C@@H](CCC(=O)O)C(=O)N[C@@H](CCCCNC(=O)COCCOCCNC(=O)COCCOCCNC(=O)CC[C@H](NC(=O)CCCCCCCCCCCCCCCCC(=O)O)C(=O)O)C(=O)N1CCC[C@H]1C(=O)N[C@@H](CCC(=O)O)C(=O)N[C@@H](CCC(=O)O)C(=O)N[C@@H](CCC(=O)O)C(=O)N[C@@H](C)C(=O)N[C@@H](CO)C(=O)N1CCC[C@H]1C(=O)N[C@@H](CCC(=O)O)C(=O)N[C@@H](CCC(=O)O)C(=O)N[C@@H](CC(C)C)C(=O)N[C@@H](CCC(=O)O)C(=O)N[C@@H](CCC(N)=O)C(=O)N[C@@H](Cc1ccc(O)cc1)C(=O)N[C@@H](Cc1ccc(O)cc1)C(=O)N[C@H](C(=O)N[C@@H](CO)C(=O)N[C@@H](CC(C)C)C(=O)N[C@@H](CCCNC(=N)N)C(=O)N[C@@H](Cc1c[nH]cn1)C(=O)N[C@@H](Cc1ccc(O)cc1)C(=O)N[C@@H](Cc1ccc(O)cc1)C(=O)N[C@@H](CC(N)=O)C(=O)N[C@@H](Cc1c[nH]c2ccccc12)C(=O)N[C@@H](CC(C)C)C(=O)N[C@H](C(=O)N[C@@H](CCCNC(=N)N)C(=O)N[C@@H](CCC(N)=O)C(=O)N[C@@H](CCCNC(=N)N)C(=O)N[C@@H](Cc1ccc(O)cc1)C(N)=O)[C@@H](C)O)C(C)C [Compound 170, N{alpha-4}-(3-methylbutanoyl)-N{epsilon-7}-[2-(2-{2-[2-(2-{2-[(4S)-4-carboxy-4-(17-carboxyheptadecanamido)butanamido]ethoxy}ethoxy)acetamido]ethoxy}ethoxy)acetamido]-[4A,7K,9E,11E,18E,19Q,22V,28Y,30W,31L]hPYY (4-36)] (Isovaleryl-APEK([AEEA-AEEA-γGlu-C18 diacid])PEEEASPEELEQYYVSLRHYYNWLTRQRY-NH2)"
2,2.55,"CC(C)CC(=O)N[C@@H](C)C(=O)N1CCC[C@H]1C(=O)N[C@@H](CCC(=O)O)C(=O)N[C@@H](CCCCNC(=O)COCCOCCNC(=O)COCCOCCNC(=O)CC[C@H](NC(=O)CCCCCCCCCCCCCCCCC(=O)O)C(=O)O)C(=O)N1CCC[C@H]1C(=O)N[C@@H](CCC(=O)O)C(=O)N[C@@H](CCC(=O)O)C(=O)N[C@@H](CC(=O)O)C(=O)N[C@@H](CO)C(=O)N[C@@H](CO)C(=O)N1CCC[C@H]1C(=O)N[C@@H](CCC(=O)O)C(=O)N[C@@H](CCC(=O)O)C(=O)N[C@@H](CC(C)C)C(=O)N[C@@H](CCC(N)=O)C(=O)N[C@@H](CCCNC(=N)N)C(=O)N[C@@H](Cc1ccc(O)cc1)C(=O)N[C@@H](Cc1ccc(O)cc1)C(=O)N[C@H](C(=O)N[C@@H](CCC(=O)O)C(=O)N[C@@H](CC(C)C)C(=O)N[C@@H](CCCNC(=N)N)C(=O)N[C@@H](Cc1c[nH]cn1)C(=O)N[C@@H](Cc1ccc(O)cc1)C(=O)N[C@@H](Cc1ccc(O)cc1)C(=O)N[C@@H](CC(N)=O)C(=O)N[C@@H](Cc1c[nH]c2ccccc12)C(=O)N[C@@H](CC(C)C)C(=O)N[C@H](C(=O)N[C@@H](CCCNC(=N)N)C(=O)N[C@@H](CCC(N)=O)C(=O)N[C@@H](CCCNC(=N)N)C(=O)N[C@@H](Cc1ccc(O)cc1)C(N)=O)[C@@H](C)O)C(C)C [Compound 177, N{alpha-4}-(3-methylbutanoyl)-N{epsilon-7}-[2-(2-{2-[2-(2-{2-[(4S)-4-carboxy-4-(17-carboxyheptadecanamido)butanamido]ethoxy}ethoxy)acetamido]ethoxy}ethoxy)acetamido]-[4A,7K,9E,12S,18Q,22V,23E,28Y,30W,31L]hPYY (4-36)]"
